“And” between values parts separate entries of the source, which are not always exact repeats. Identical values can stand only once. The source made the active and inactive calls.
How the values were obtained:
Genome polyprotein = Genome polyprotein (Hepatitis C virus, UniProt Q2Q167); assay: HCV core protein dimerization inhibitors, dose response, biochemical, TR-FRET (AID 2159); design: species or system Hepacivirus hominis;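 also: blocks dimerization of HCV core protein measured by TR-FRET between tagged core106 pairs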
Genome polyprotein, sequence (Q2Q167 whole entry): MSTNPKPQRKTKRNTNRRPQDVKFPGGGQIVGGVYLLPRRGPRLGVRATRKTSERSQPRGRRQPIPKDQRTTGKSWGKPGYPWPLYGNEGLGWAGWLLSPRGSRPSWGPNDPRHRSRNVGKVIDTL

[1] = compounds displacing fluorescent intercalator from DNA, dose response, counter-screen for HCV NS3 helicase inhibitor project, biochemical, fluorescence (AID 2172)
Bcl-2-like protein 10 = Bcl-2-like protein 10 (Homo sapiens, UniProt Q9HD36); assay: displacers of TR3 peptide from Bcl-B, primary screen, selectivity assay for Bfl-1 inhibitor project, biochemical, fluorescence polarization, FITC-TR3 peptide (AID 748);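 also: fluorescence polarization from a fluorescein-labelled TR3 peptide binding purified Bcl-B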
Bcl-2-like protein 10, sequence (Q9HD36 whole entry): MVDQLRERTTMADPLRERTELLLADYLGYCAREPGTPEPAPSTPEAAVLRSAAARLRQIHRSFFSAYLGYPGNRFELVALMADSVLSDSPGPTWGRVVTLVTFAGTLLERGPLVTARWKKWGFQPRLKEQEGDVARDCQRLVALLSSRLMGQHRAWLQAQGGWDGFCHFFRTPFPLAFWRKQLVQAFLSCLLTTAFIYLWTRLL

NS3 = NS3 (Hepatitis C virus, UniProt A3EZJ3); assay: PubChem AID 2173; design: species or system Hepacivirus hominis
NS3, sequence (A3EZJ3 whole entry): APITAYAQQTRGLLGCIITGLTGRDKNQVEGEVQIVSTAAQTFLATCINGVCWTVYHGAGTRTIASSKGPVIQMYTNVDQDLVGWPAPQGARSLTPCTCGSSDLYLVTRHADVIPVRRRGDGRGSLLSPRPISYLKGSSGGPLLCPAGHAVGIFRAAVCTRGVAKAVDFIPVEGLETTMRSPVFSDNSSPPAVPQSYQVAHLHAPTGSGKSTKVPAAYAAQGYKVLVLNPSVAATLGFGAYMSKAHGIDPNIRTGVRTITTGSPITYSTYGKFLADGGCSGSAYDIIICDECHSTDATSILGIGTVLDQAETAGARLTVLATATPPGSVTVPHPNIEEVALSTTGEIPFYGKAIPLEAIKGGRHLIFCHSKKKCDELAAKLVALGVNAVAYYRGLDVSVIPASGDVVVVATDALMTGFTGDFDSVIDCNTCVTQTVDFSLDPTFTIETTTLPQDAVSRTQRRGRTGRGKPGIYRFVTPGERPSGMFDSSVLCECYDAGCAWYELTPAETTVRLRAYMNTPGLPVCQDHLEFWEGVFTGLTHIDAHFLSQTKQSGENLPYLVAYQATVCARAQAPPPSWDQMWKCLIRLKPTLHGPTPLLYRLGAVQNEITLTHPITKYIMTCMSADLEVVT

[2] = target: Protein-tyrosine kinase 2-beta (Homo sapiens, UniProt Q14289);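 also: potency of inhibitors of PYK2 kinase phosphorylation of poly-GT substrate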
Protein-tyrosine kinase 2-beta, sequence (Q14289 whole entry): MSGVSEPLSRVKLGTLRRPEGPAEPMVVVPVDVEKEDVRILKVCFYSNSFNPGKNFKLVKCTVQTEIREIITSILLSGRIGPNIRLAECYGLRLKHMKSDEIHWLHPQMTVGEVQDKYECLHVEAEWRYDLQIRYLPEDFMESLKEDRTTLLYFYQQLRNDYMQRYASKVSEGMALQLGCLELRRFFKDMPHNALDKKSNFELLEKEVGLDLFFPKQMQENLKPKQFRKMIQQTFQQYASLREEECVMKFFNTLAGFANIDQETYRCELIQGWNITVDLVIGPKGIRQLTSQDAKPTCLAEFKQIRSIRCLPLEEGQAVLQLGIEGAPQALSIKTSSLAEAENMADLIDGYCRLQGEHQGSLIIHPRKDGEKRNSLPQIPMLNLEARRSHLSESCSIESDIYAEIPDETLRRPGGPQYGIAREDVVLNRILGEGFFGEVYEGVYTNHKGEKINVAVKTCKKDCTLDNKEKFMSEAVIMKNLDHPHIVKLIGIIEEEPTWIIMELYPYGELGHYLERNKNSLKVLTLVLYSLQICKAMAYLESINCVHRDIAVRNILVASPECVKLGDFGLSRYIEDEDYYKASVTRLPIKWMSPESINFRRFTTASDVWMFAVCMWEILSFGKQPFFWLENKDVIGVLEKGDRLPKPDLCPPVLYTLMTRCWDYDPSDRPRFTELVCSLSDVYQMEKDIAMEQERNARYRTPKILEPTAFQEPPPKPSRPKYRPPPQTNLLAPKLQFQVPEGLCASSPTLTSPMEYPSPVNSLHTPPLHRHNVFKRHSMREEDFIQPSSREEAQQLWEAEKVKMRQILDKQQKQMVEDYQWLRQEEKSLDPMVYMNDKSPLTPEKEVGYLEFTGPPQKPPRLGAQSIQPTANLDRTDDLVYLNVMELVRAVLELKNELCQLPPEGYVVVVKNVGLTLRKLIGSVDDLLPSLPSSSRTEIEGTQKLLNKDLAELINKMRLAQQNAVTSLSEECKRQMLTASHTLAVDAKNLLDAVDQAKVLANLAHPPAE

[3] = target: T1, Tyrosine-protein phosphatase non-receptor type 7 (Homo sapiens, UniProt P35236); assay: redox-dependent HePTP inhibition, mechanism study, biochemical, fluorescence (AID 2068); type: functional
T1 sequence (P35236 whole entry): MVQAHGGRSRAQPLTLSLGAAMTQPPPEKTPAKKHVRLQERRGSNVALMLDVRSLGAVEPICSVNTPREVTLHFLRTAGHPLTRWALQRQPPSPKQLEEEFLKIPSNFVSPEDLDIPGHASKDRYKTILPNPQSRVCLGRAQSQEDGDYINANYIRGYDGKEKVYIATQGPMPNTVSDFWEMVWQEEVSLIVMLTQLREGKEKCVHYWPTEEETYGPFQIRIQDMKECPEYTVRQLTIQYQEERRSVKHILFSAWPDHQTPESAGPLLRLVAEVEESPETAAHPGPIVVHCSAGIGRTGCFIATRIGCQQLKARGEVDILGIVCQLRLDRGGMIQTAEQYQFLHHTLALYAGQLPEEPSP

[4] = target: Eukaryotic translation initiation factor 4E (Mus musculus, UniProt P63073); assay: eIF4E–eIF4G protein interaction inhibitors, dose response, biochemical, TR-FRET (AID 855); type: functional;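 also: potency for disrupting eIF4E binding to eIF4GI seen as loss of FRET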
Eukaryotic translation initiation factor 4E, sequence (P63073 whole entry): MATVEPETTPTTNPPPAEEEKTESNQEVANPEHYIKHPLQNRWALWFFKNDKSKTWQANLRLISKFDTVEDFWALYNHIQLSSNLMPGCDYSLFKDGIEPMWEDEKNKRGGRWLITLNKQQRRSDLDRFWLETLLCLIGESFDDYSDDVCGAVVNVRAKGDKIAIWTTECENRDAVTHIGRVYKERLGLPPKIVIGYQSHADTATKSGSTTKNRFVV

[5] = Cytotoxicity screening for potential Inhibitors of Bacterial Capsule Biogenesis. [Related pubchem assays (depositor defined):AID488970]; type: functional
Nonstructural protein 1 = Nonstructural protein 1 (Influenza A virus, UniProt Q194T2); type: functional, Influenza A virus (A/California/07/2009(H1N1))
Nonstructural protein 1, sequence (Q194T2 whole entry): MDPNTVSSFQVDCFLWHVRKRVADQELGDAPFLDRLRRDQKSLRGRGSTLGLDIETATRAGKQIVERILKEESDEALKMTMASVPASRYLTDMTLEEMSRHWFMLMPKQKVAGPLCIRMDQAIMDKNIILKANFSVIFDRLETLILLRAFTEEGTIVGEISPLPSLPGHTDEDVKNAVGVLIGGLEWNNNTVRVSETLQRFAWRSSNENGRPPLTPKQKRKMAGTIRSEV

[6] = target: Dual specificity tyrosine-phosphorylation-regulated kinase 1A (Rattus norvegicus, UniProt Q63470); type: biochemical, Homo sapiens
[7] = HeLa cell cytotoxicity, dose response, cytotoxicity control for MgcRacGAP inhibitor project (AID 624300); type: functional
[8] = target: T2, Rac GTPase-activating protein 1 (Homo sapiens, UniProt Q9H0H5); assay: MgcRacGAP GTPase-activating activity inhibitors, confirmation, biochemical, ADP Hunter fluorescence, primary and confirmatory (AID 624330); type: functional
T2 sequence (Q9H0H5 whole entry): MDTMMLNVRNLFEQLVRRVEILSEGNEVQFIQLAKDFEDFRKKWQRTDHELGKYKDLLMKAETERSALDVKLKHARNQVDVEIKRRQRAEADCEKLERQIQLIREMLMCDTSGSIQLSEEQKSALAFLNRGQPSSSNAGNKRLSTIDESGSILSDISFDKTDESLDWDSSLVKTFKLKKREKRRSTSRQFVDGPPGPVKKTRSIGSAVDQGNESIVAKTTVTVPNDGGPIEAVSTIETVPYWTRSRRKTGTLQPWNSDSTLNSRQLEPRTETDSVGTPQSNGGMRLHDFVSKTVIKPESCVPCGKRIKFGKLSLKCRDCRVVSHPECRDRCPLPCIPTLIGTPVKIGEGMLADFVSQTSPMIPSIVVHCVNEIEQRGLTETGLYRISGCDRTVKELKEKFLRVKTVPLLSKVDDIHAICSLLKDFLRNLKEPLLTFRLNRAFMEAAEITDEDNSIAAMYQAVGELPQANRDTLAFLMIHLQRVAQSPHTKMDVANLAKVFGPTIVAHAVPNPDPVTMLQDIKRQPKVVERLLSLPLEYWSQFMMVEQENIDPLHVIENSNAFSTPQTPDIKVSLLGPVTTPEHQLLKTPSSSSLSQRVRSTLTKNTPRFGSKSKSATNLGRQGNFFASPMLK

[9] = target: T3, DNA repair protein RAD52 homolog (Homo sapiens, UniProt P43351); type: functional, biochemical
T3 sequence (P43351 whole entry): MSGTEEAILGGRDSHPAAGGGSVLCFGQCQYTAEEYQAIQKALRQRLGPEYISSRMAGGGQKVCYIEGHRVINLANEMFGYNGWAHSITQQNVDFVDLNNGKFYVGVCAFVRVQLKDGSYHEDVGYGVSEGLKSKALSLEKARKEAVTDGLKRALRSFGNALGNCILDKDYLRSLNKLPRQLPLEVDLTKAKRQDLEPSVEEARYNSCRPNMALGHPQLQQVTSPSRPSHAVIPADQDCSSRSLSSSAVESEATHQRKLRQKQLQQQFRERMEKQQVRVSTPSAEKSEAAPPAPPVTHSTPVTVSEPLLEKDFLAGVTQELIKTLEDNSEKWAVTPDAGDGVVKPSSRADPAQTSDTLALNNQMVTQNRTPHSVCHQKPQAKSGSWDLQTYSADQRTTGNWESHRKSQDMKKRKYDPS

[10] = target: T4, Histone-lysine N-methyltransferase NSD2 (Homo sapiens, UniProt O96028); type: biochemical
T4 sequence (O96028 whole entry): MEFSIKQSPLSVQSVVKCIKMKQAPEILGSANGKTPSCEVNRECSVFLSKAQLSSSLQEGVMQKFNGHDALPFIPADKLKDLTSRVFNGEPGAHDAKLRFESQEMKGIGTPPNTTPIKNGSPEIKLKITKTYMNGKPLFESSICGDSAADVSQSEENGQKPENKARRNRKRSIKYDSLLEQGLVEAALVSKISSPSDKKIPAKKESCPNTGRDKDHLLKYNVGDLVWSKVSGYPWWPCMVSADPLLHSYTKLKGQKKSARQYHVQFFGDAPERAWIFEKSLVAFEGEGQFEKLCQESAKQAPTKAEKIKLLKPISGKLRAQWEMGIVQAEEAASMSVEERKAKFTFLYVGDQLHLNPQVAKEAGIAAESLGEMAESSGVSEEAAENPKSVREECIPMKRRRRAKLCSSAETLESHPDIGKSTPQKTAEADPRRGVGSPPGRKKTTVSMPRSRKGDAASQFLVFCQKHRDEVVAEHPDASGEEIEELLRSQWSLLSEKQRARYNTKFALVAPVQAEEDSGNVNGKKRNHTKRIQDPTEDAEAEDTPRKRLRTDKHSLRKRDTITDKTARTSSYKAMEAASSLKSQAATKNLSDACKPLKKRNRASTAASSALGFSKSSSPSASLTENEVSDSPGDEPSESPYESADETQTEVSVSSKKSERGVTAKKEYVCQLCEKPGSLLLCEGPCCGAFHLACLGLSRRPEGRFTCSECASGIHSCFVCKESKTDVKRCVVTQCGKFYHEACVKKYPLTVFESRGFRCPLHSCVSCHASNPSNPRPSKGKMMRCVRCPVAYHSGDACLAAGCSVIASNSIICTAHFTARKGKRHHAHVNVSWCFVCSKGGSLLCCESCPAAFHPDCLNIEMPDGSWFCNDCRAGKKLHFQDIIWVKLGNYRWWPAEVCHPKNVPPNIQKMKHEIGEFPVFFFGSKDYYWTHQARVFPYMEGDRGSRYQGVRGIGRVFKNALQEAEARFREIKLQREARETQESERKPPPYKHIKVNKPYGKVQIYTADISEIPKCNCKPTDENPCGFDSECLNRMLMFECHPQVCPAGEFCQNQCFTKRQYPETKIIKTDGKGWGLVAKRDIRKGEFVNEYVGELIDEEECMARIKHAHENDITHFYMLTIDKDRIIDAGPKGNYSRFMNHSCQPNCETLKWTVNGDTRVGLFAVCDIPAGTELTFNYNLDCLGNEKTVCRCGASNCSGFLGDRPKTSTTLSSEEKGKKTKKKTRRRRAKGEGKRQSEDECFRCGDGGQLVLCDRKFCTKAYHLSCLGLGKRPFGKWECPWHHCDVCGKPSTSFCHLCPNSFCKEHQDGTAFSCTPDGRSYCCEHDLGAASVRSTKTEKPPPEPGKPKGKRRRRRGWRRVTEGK

[11] = human group III sPLA2 inhibitors, dose response, biochemical, QFRET, IC50 (AID 743457);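 also: green fluorescence rise as the enzyme cleaves BODIPY PC-A2 in liposomes; potency for inhibition of the enzyme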
[12] = tested on: Streptococcus sp. 'group A'; assay: growth inhibition of control SK(-) GAS strain, dose response, counter-screen for streptokinase expression inhibitor project, luminescence, kanamycin, BacTiterGlo, confirmation (AID 1900); type: functional, organism-based
Streptokinase A = target: T5, Streptokinase A (Streptococcus pyogenes serotype M1, UniProt P10520); assay: S. pyogenes streptokinase expression inhibitors, potency, dose response, plasminogen activation absorbance, OD405 (AID 1914); type: functional, Streptococcus pyogenes M1 GAS;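 also: secreted streptokinase activity via plasminogen activation per viability signal from cell pellet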
T5 sequence (P10520 whole entry): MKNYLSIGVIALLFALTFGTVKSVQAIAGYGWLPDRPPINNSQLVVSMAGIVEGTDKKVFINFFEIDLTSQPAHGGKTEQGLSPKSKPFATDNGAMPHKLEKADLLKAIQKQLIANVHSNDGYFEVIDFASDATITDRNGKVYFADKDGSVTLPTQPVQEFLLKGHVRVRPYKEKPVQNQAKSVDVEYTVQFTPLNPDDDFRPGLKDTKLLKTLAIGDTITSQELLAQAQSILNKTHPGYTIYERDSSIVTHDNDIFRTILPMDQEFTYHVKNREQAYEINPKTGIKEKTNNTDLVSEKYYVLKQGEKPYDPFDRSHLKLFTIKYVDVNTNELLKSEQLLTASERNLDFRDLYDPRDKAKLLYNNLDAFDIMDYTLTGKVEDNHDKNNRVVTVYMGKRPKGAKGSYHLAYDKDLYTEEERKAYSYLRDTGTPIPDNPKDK

Streptococcus = assay: Group A Streptococcus viability loss, dose response, counter-screen for streptokinase expression inhibitor project, luminescence, BacTiterGlo (AID 1915); type: functional, organism-based;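 also: potency for reduction of bacterial viability or growth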
X-box-binding protein 1 = X-box-binding protein 1 (Homo sapiens, UniProt P17861); type: functional, Cricetulus griseus;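 also: confirmatory dose-response counter-screen serving a CHOP assay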
X-box-binding protein 1, sequence (P17861 whole entry): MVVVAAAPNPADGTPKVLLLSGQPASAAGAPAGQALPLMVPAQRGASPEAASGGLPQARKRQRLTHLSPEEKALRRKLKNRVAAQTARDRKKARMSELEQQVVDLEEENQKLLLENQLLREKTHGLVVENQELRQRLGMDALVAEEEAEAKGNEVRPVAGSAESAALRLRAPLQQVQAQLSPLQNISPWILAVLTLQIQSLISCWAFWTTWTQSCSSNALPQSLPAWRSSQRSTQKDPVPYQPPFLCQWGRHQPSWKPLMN

[13] = target: Cyclin-dependent kinase 5/CDK5 activator 1 (Homo sapiens, UniProt Q00535); assay: CDK5/p35 kinase inhibitors, dose response, biochemical, cherry-picked samples, set 2 (AID 504545)
Cyclin-dependent kinase 5/CDK5 activator 1, sequence (Q00535 whole entry, the tested form may be a part): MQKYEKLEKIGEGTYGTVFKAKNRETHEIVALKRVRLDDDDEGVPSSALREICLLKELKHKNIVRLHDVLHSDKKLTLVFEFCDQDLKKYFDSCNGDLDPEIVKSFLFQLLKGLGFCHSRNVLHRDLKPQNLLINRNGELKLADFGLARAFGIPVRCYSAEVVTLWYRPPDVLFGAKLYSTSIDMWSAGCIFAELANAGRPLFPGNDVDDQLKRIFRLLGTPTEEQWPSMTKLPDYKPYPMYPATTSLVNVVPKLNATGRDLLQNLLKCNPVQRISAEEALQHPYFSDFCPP
Cyclin-dependent kinase 5/CDK5 activator 1, sequence (Q15078 whole entry, further chain, the tested form may be a part): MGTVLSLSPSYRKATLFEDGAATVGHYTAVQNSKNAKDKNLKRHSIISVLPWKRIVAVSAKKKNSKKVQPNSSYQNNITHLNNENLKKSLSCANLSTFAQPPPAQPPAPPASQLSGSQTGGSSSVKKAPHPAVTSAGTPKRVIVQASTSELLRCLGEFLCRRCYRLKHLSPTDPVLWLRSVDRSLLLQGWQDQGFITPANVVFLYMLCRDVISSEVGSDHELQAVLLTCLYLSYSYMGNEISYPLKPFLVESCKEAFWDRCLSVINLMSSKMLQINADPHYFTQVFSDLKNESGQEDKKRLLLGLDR

[14] = inhibitors of HIV Env-driven cell fusion, dose response, cherry-pick (AID 652057); type: functional, cell-based
[15] = CEM21 lymphoblast cell cytotoxicity, dose response, cytotoxicity control for viral fusion inhibitor project, CellTiter-Glo luminescence, cherry-picked (AID 652042); type: functional, cell-based;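 also: potency for signal decrease meaning cytotoxicity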
[16] = ZM109 Env clade C HIV-1 fusion inhibitors, dose response, HeLa effector, CEM target cells, luciferase, cherry-pick (AID 652058); type: functional, cell-based
Paired box protein Pax-8 = Paired box protein Pax-8 (Homo sapiens, UniProt Q06710); assay: inhibitors of PAX8-driven TPO luciferase reporter, dose response, RMG-I cells, cherry-pick (AID 687027); type: functional, cell-based;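 also: luciferase reporter driven by Pax8 target thyroperoxidase promoter measured by SteadyGlo luminescence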
Paired box protein Pax-8, sequence (Q06710 whole entry, the tested form may be a part): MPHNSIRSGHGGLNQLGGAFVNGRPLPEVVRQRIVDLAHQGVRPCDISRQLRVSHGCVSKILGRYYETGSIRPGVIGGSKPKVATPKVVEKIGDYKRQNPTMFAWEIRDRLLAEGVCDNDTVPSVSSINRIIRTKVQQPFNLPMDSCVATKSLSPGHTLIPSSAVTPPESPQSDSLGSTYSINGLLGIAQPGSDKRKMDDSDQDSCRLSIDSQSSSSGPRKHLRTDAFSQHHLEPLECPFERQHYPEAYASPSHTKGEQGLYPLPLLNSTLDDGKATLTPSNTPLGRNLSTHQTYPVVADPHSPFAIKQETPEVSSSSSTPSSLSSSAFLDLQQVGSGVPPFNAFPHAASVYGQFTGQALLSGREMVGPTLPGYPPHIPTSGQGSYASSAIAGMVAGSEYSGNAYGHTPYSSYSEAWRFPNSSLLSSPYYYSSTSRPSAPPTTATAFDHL

[17] = off-target signal loss in HeLa-CEM21 co-culture – HeLa F-luc CTL cells, cherry-picked, counter-screen for HIV-1 Env fusion inhibitor project, dose response (AID 652040); type: functional, cell-based;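 also: potency for signal decrease marking cytotoxic or nonspecific inhibition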
[18] = inhibitors of clade B AD8 Env fusion, dose response, cell-based, cherry-pick (AID 652062); type: functional;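 also: luciferase signal from cell-cell fusion driven by HIV-1 clade B AD8 Env; potency is for inhibitors of fusion seen as a drop in luminescence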

CC(=O)c1ccc(NC(=O)c2ccc3nc(-c4ccco4)c(-c4ccco4)nc3c2)cc1
IC50 (Genome polyprotein): > 49800 nM (not active)
IC50 [1]: 83500 nM (not active)
IC50 (Bcl-2-like protein 10): 14600 nM (active)
IC50 (NS3): 5880 nM (active)
IC50 [2]: 1240 nM (active)
IC50 [3]: 998 nM (active) and 805 nM (active)
IC50 [4]: > 64000 nM (inactive)

O=C1c2c(O)ccc(O)c2C(=O)c2c(NCCNCCO)ccc(NCCNCCO)c21 [MITOXANTRONE]
CC50 [5]: < 380 nM (active)
IC50 (Nonstructural protein 1): 2050 nM (active)
AC50 [6]: 1250 nM (active)
CC50 [7]: 6340 nM (active)
IC50 [8]: 14500 nM (active)
AC50 [9]: < 244 nM (active)
AC50 [10]: 2340 nM (active)
IC50 [11]: > 122000 nM (inactive)

Cc1cc(O)c(NC(=S)NC(=O)c2ccc(-c3ccc(Cl)cc3)o2)cc1C
EC50 [12]: 959 nM (active)
EC50 (Streptokinase A): > 150000 nM (not active)
EC50 (Streptococcus): 12200 nM (active)
Absolute IC50 (XBP1) (X-box-binding protein 1): 10000 nM

N#Cc1c(N)n(C2OC(CO)C(O)C2O)c2ncnc(N)c12 (configuration not stated)
AC50 [13]: 8580 nM (active)
AC50 [6]: 120 nM (active)
AC50 [14]: 609 nM (active)
AC50 [15]: < 260 nM (active)
AC50 [16]: 822 nM (active)
AC50 (Paired box protein Pax-8): < 260 nM (active)
AC50 [17]: 663 nM (active)
AC50 [18]: 2860 nM (active)
